Laboratory results reported in the NIST ThermoML archive (doi:10.1016/j.tca.2015.03.016).
Where “and” joins values, the source holds several entries; their conditions need not be identical. Equal values may be shown once.

Details: Liquid, Transpiration method

CN(C)C1CCCCC1 [N,N-dimethylcyclohexylamine]
Details	vapor or sublimation pressure
275.3 K	0.0902 kPa and 0.0943 kPa
275.4 K	0.0923 kPa
278.3 K	0.1123 kPa
281.2 K	0.1456 kPa
284.2 K	0.1766 kPa
287.2 K	0.2125 kPa
290.3 K	0.2601 kPa
293.2 K	0.3186 kPa
296.2 K	0.383 kPa
299.2 K	0.472 kPa
302.2 K	0.5659 kPa
305.3 K	0.6634 kPa
308.3 K	0.8071 kPa
311.2 K	0.912 kPa
314.3 K	1.106 kPa

C1CCC(NC2CCCCC2)CC1 [N-cyclohexylcyclohexanamine]
Details	vapor or sublimation pressure [kPa]
295.4 K	0.00322
298.3 K	0.00416
301.2 K	0.0055
304.2 K	0.00706
307.2 K	0.00889
310.2 K	0.01123
313.2 K	0.01433
315.1 K	0.0165
318.3 K	0.02093
321.2 K	0.02576
324.2 K	0.03192
327.2 K	0.03941
330.2 K	0.0492
333.2 K	0.05903

CNC1CCCCC1 [N-methylcyclohexylamine]
Details	vapor or sublimation pressure [kPa]
275.2 K	0.1412
278.2 K	0.1788
281.2 K	0.2211
284.2 K	0.2727
287.2 K	0.3362
290.4 K	0.4224
293.2 K	0.4889
296.2 K	0.606
299.2 K	0.7392
302.2 K	0.8882
305.2 K	1.044
308.3 K	1.278
311.2 K	1.51
314.2 K	1.784

NC1CCCCC1 [cyclohexylamine]
Details	vapor or sublimation pressure [kPa]
283.2 K	0.4635
286.2 K	0.5583
290.1 K	0.7237
293.3 K	0.9124
296.2 K	1.06
298.1 K	1.182
299.3 K	1.28
302.3 K	1.541
305.3 K	1.788
308.3 K	2.115
